Calls of active or inactive are those of the source. The calls are words filed in the database; no cut-off is given here.
Experiments:
SH-SY5Y [1] = test: Neuroprotective activity against oxygen glucose deprivation-induced neurotoxicity in human SH-SY5Y cells; format: functional, cell-based
SH-SY5Y [2] = test: Neuroprotective activity against amyloid beta(25 to 35)-induced neurotoxicity in human SH-SY5Y cells assessed as cell viability at 10 uM (reference value: 62.1 +/- 2.2%); format: functional; settings: for viability at 10 µM: read-out: Activity
SH-SY5Y [3] = test: Neuroprotective activity against H2O2-induced neurotoxicity in human SH-SY5Y cells; format: functional, cell-based
SH-SY5Y [4] = test: Cytotoxicity against human SH-SY5Y cells assessed as cell viability by MTT assay; format: cell-based
SH-SY5Y [5] = test: Cytotoxicity against human SH-SY5Y cells assessed as cell proliferation by SRB assay; format: cell-based
SH-SY5Y [6] = test: Neuroprotective activity against amyloid beta(25 to 35)-induced neurotoxicity in human SH-SY5Y cells assessed as cell viability at 10 uM by SRB assay; format: functional, cell-based

| Compound | Activity (SH-SY5Y [1]) | Activity (SH-SY5Y [2]) | Activity (SH-SY5Y [3]) | Activity (SH-SY5Y [4]) | Activity (SH-SY5Y [5]) | viability at 10 µM (SH-SY5Y [2]) [%] | Activity (SH-SY5Y [6]) |
| --- | --- | --- | --- | --- | --- | --- | --- |
| Cc1c2n(c3ccccc13)C[C@@H](C)O[C@@H]2c1ccccc1 | inactive | inactive | inactive | – | – | – | – |
| Cc1c2n(c3ccccc13)C[C@@H](C)O[C@H]2c1ccc(F)cc1 | inactive | – | inactive | Non-toxic | Non-toxic | 90.6 | Active |
| Cc1c2n(c3ccccc13)C[C@H](C)O[C@@H]2c1ccc(C(C)(C)C)cc1 | inactive | – | inactive | – | – | 84.5 | – |
| Cc1c2n(c3ccccc13)C[C@H](C)O[C@H]2c1ccc(C(F)(F)F)cc1 | inactive | inactive | inactive | – | – | – | – |
| Cc1cccc([C@@H]2O[C@@H](C)Cn3c2c(C)c2ccccc23)c1 | inactive | inactive | inactive | – | – | – | – |
| CCc1ccc([C@H]2O[C@@H](C)Cn3c2c(C)c2ccccc23)cc1 | inactive | – | inactive | Non-toxic | Non-toxic | 93 | Active |
| Cc1ccc([C@H]2O[C@@H](C)Cn3c2c(C)c2ccccc23)cc1 | inactive | inactive | inactive | – | – | – | – |
| Cc1c2n(c3ccccc13)C[C@H](C)O[C@H]2c1cccs1 | inactive | inactive | inactive | – | – | – | – |
| Cc1ccc([C@@H]2O[C@@H](C)Cn3c2c(C)c2ccccc23)cc1 | inactive | inactive | inactive | – | – | – | – |
| COc1cc([C@H]2O[C@@H](C)Cn3c2c(C)c2ccccc23)cc(OC)c1OC | inactive | inactive | inactive | – | – | – | – |
| Cc1c2n(c3ccccc13)C[C@H](C)O[C@@H]2c1coc2ccccc2c1=O | inactive | inactive | inactive | – | – | – | – |
| Cc1ccccc1[C@H]1O[C@@H](C)Cn2c1c(C)c1ccccc12 | inactive | inactive | inactive | – | – | – | – |
| Cc1c2n(c3ccccc13)C[C@H](C)O[C@@H]2c1ccc(F)cc1 | inactive | inactive | inactive | – | – | – | – |
| Cc1c2n(c3ccccc13)C[C@H](C)O[C@@H]2c1cccs1 | inactive | inactive | inactive | – | – | – | – |
| Cc1c2n(c3ccccc13)C[C@H](C)O[C@H]2c1ccc(CC(C)C)cc1 | inactive | – | inactive | Non-toxic | Non-toxic | 96.2 | Active |
| Cc1c2n(c3ccccc13)C[C@H](C)O[C@H]2c1ccc(C(C)(C)C)cc1 | inactive | – | inactive | Non-toxic | Non-toxic | 92.1 | Active |
| Cc1c2n(c3ccccc13)C[C@H](C)O[C@@H]2c1ccc(CC(C)C)cc1 | inactive | – | inactive | Non-toxic | Non-toxic | 108 | Active |
| COc1cc([C@@H]2O[C@@H](C)Cn3c2c(C)c2ccccc23)cc(OC)c1OC | inactive | inactive | inactive | – | – | – | – |

| Compound | Activity (SH-SY5Y [1]) | Activity (SH-SY5Y [2]) | Activity (SH-SY5Y [3]) | Activity (SH-SY5Y [4]) | Activity (SH-SY5Y [5]) | viability at 10 µM (SH-SY5Y [2]) [%] | Activity (SH-SY5Y [6]) |
| --- | --- | --- | --- | --- | --- | --- | --- |
| COc1ccccc1[C@@H]1O[C@@H](C)Cn2c1c(C)c1ccccc12 | inactive | – | inactive | – | – | 77.7 | – |
| Cc1c2n(c3ccccc13)C[C@H](C)O[C@H]2c1ccccc1 | inactive | inactive | inactive | – | – | – | – |
| Cc1c2n(c3ccccc13)C[C@@H](C)O[C@H]2c1ccccc1 | inactive | inactive | inactive | – | – | – | – |
| COc1cccc([C@@H]2O[C@@H](C)Cn3c2c(C)c2ccccc23)c1 | inactive | inactive | inactive | – | – | – | – |
| Cc1c2n(c3ccccc13)C[C@H](C)O[C@H]2c1ccc(Cl)cc1 | inactive | inactive | inactive | – | – | – | – |
| Cc1ccccc1[C@@H]1O[C@@H](C)Cn2c1c(C)c1ccccc12 | inactive | inactive | inactive | – | – | – | – |
| COc1cccc([C@H]2O[C@@H](C)Cn3c2c(C)c2ccccc23)c1 | inactive | inactive | inactive | – | – | – | – |
| COc1ccccc1[C@H]1O[C@@H](C)Cn2c1c(C)c1ccccc12 | inactive | inactive | inactive | – | – | – | – |
| Cc1c2n(c3ccccc13)C[C@H](C)O[C@@H]2c1ccc(C(F)(F)F)cc1 | inactive | inactive | inactive | – | – | – | – |
| Cc1c2n(c3ccccc13)C[C@H](C)O[C@@H]2c1ccc(Cl)cc1 | inactive | – | inactive | – | – | 74.4 | – |
| Cc1c2n(c3ccccc13)C[C@@H](C)O[C@@H]2c1ccc(F)cc1 | inactive | inactive | inactive | – | – | – | – |
| Cc1cc(C)cc([C@H]2O[C@@H](C)Cn3c2c(C)c2ccccc23)c1 | inactive | inactive | inactive | – | – | – | – |
| Cc1cc(C)cc([C@@H]2O[C@@H](C)Cn3c2c(C)c2ccccc23)c1 | inactive | – | inactive | – | – | 87.1 | – |
| O=C(O[C@@H]1Cc2c(O)cc(O)cc2O[C@@H]1c1cc(O)c(O)c(O)c1)c1cc(O)c(O)c(O)c1 [EPIGALOCATECHIN GALLATE] | – | – | – | – | – | 98.6 | – |
| Cc1c2n(c3ccccc13)C[C@H](C)O[C@@H]2c1ccccc1 | inactive | inactive | inactive | – | – | – | – |
| Cc1c2n(c3ccccc13)C[C@H](C)O[C@H]2c1ccc(F)cc1 | inactive | inactive | inactive | – | – | – | – |
| Cc1cccc([C@H]2O[C@@H](C)Cn3c2c(C)c2ccccc23)c1 | inactive | inactive | inactive | – | – | – | – |
| CCc1ccc([C@@H]2O[C@@H](C)Cn3c2c(C)c2ccccc23)cc1 | inactive | inactive | inactive | – | – | – | – |
